Literature values, collected in patent US20250352610A1, “NOVEL COMPOSITION” (Arecor Limited, priority 2022, published 2025).

Details: excipients of VancoReady; black box warning

Fetal malformations in animal reproductive studies: cause fetal malformations
SMILES: CC(=O)N[C@H](C)C(=O)O [N-acetyl-D-alanine]
